Measured values published in BigSolDB 2.1.

CN(C)NC(=O)CCC(=O)O
solubility (mole fraction)
Conditions	283.15 K	288.15 K	293.15 K	298.15 K	303.15 K	308.15 K	313.15 K	318.15 K	323.15 K
in 2-butoxyethanol	0.000247	0.000346	0.000471	0.000632	0.000905	0.00126	0.00162	0.00213	0.00278
in 2-ethoxyethanol	0.00176	0.00228	0.00291	0.00382	0.00492	0.00621	0.00767	0.00954	0.012
in 2-methoxyethanol	0.00398	0.00519	0.00634	0.00784	0.0096	0.0116	0.014	0.0169	0.0203
in 2-propoxyethanol	0.000405	0.000617	0.000794	0.00108	0.00144	0.00184	0.00233	0.00304	0.00393
in DMF	0.0207	0.0245	0.0293	0.0329	0.0388	0.0449	0.0503	0.0568	0.0645
in NMP	0.037	0.042	0.0481	0.0552	0.063	0.0714	0.0813	0.09	0.1
in acetonitrile	0.000172	0.000226	0.000296	0.000386	0.000503	0.000653	0.000846	0.00109	0.00141
in ethanol	0.00275	0.00354	0.00437	0.00551	0.0069	0.00848	0.0102	0.0128	0.0164
in isopropanol	0.000326	0.00048	0.000752	0.0011	0.00159	0.0022	0.00302	0.00433	0.00579
in methanol	0.00823	0.0097	0.0116	0.014	0.0167	0.0196	0.0227	0.026	0.0301
in n-pentanol	0.000149	0.000191	0.00026	0.000344	0.000477	0.000634	0.000821	0.00109	0.00145
in n-propanol	0.000944	0.00121	0.00161	0.00217	0.00285	0.00367	0.00471	0.00615	0.00768
